# From ChEMBL document CHEMBL1158987, “Isolation and structure determination of novel phosphatidylinositol kinase inhibitors, echiguanines A and B, from Streptomyces sp” (J Nat Prod, 1991)
# Assay: Toxicity in ip dosed mouse
# Format: organism-based
# Details: in vivo
row,SMILES,LD50 [mg/kg]
1,N=C(N)CCNC(=O)c1c[nH]c2nc(N)nc(O)c12 [ECHIGUANINE A],> 100
2,NCCCNC(=O)c1c[nH]c2nc(N)nc(O)c12 [ECHIGUANINE B],> 100

# Assay: Inhibition of phosphatidylinositol 4-kinase in human A431 cell membrane by liquid scintillation counting
# Format: cell-based
# Details: a-431
row,SMILES,IC50 [µg/mL]
1,Nc1nc(=O)[nH]c2nc[nH]c12 [ISOGUANINE],> 100
2,N=C(N)CCNC(=O)c1c[nH]c2nc(N)nc(O)c12 [ECHIGUANINE A],0.04
3,NCCCNC(=O)c1c[nH]c2nc(N)nc(O)c12 [ECHIGUANINE B],0.11
4,O=Cc1cccc(O)c1O,0.45
5,N#Cc1cn([C@@H]2O[C@H](CO)[C@@H](O)[C@H]2O)c2ncnc(N)c12 [TOYOCAMYCIN],3.3
6,O=c1c(-c2ccc(O)c(O)c2)coc2cc(O)cc(O)c12 [OROBOL],0.25
7,O=c1c(O)c(-c2ccc(O)c(O)c2)oc2cc(O)cc(O)c12 [QUERCETIN],1.8
8,Nc1nc2[nH]cnc2c(=O)[nH]1 [GUANINE],> 100
9,Nc1[nH]cnc2ncnc1-2 [ADENINE],> 100
10,Nc1nc2c(c(=O)[nH]1)CC=N2 [7-DEAZAGUANINE],35
11,O=c1[nH]cnc2nc[nH]c12 [HYPOXANTHINE],> 100
